According to US20240409519A1, “HYDROGENATED QUINOXALINES” (OTSUKA PHARMACEUTICAL CO., LTD., priority 2021, published 2024):
One block for each compound: values may come before it.

Key:
[1] = biological target: T1, serotonin (5-HT) uptake (Rattus norvegicus, UniProt P31652); assay: Serotonin (5-HT) uptake inhibitory activity in rat brain synaptosome; format: biochemical; conditions: rat frontal cortex synaptosome, tritium-labeled 5-HT 8 nM; read-out: IC50 (nM), serotonin (5-HT) uptake inhibition
T1 construct: used as crude synaptosomal fraction; from tissue; host or cells: rat frontal cortex, crude synaptosomal fraction
T1 sequence (P31652 whole entry): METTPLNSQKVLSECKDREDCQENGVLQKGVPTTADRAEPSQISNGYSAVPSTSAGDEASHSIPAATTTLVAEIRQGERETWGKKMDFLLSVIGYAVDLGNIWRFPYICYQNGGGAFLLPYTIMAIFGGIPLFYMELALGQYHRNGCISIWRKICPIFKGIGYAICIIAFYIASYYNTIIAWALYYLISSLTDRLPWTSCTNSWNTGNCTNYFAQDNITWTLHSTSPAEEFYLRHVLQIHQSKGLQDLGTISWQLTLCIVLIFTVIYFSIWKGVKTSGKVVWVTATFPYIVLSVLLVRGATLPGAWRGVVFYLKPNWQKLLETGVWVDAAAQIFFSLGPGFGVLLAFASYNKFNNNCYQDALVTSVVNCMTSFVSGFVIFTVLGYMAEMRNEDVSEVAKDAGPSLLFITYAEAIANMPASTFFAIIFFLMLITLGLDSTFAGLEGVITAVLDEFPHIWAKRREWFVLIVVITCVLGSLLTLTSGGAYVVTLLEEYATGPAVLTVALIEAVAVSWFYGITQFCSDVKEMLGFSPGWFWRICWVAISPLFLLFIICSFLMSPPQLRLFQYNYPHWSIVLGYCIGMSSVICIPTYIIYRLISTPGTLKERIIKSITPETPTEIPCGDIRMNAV
Procedure: (§1) Male Wistar rats were decapitated, each brain was removed, and the frontal cortex was cut out. […] The homogenate was centrifuged at 1000 g at 4° C. for 10 minutes, and the supernatant was further centrifuged at 20000 g at 4° C. for 20 minutes. The pellet was suspended in an incubation buffer (20 mM Hepes buffer (pH 7.4) containing 10 mM glucose, 145 mM sodium chloride, 4.5 mM potassium chloride, 1.2 mM magnesium chloride and 1.5 mM calcium chloride) and used as crude synaptosomal fraction.
(§2) Each well of a 96-well round-bottom plate was used for the uptake reaction in a total volume of 200 μL solution containing purgurin (final concentration 10 μM) and ascorbic acid (final concentration 0.2 mg/mL). In other words, solvent, unlabeled 5-HT or step-diluted test compound was added to each well, and one-tenth of the final volume of the synaptosomal fraction was added to each well, followed by pre-incubation at 37° C. for 10 minutes, and then tritium-labeled 5-HT solution (final concentration 8 nM) was added and the uptake reaction was initiated at 37° C. After 10 minutes, the uptake reaction was terminated by suction filtration onto a 96-well glass fiber filter plate. The filters were rinsed with cold physi-ological saline solution, dried thoroughly, and micro scintillation 0 (Perkin-Elmer) was added thereto. Then, the residual radioactivity on the filters was measured.
The uptake value when only solvent was added was set as 100%, the uptake value when unlabeled 5-HT (final concentration 10 μM) was added as 0% (nonspecific uptake value), and the 50% inhibitory concentration was calculated from the concentration of the test compound and its inhibitory activity.

[2] = biological target: T2, norepinephrine (NE) uptake (Rattus norvegicus, UniProt Q63380); assay: Norepinephrine (NE) uptake inhibitory activity using rat brain synaptosome; format: biochemical; conditions: rat hippocampus synaptosome, tritium-labeled NE 12 nM; read-out: IC50 (nM), norepinephrine (NE) uptake inhibition
T2 construct: used as crude synaptosomal fraction; from tissue; host or cells: rat hippocampus, crude synaptosomal fraction
T2 sequence (Q63380 1-617): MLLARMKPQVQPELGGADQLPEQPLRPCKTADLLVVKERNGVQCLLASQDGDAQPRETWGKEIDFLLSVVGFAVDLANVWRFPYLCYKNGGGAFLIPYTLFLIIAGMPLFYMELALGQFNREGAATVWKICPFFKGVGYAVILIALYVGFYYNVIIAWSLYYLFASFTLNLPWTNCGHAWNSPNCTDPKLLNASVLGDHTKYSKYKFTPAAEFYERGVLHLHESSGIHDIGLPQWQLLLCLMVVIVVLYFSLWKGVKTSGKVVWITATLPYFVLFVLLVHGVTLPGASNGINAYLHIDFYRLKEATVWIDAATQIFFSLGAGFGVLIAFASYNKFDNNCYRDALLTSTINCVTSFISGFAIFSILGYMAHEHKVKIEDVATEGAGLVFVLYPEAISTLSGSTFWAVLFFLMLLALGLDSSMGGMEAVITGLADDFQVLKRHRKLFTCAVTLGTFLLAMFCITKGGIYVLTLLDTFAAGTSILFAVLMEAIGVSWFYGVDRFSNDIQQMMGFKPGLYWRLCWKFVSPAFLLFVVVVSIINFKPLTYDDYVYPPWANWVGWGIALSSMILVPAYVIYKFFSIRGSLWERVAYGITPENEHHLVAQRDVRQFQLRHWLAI
Procedure: as §1, with “hippocampus” for “frontal cortex”
Each well of a 96-well round-bottom plate was used for the uptake reaction in a total volume of 200 μL solution containing purgurin (final concentration 10 μM) and ascorbic acid (final concentration 0.2 mg/mL).
After 10 minutes, the uptake reaction was terminated by suction filtration onto a 96-well glass fiber filter plate. The filters were rinsed with cold physi-ological saline solution, dried thoroughly, and micro scintillation 0 (Perkin-Elmer) was added thereto. Then, the residual radioactivity on the filters was measured.
The uptake value when only solvent was added was set as 100%, the uptake value when unlabeled NE (final concentration 10 μM) was added as 0% (nonspecific uptake value), and the 50% inhibitory concentration was calculated from the concentration of the test compound and its inhibitory activity.

[3] = biological target: T3, dopamine (DA) uptake (Rattus norvegicus, UniProt P23977); assay: Dopamine (DA) uptake inhibitory activity using rat brain synaptosome; format: biochemical; conditions: rat striatum synaptosome, tritium-labeled DA 2 nM; read-out: IC50 (nM), dopamine (DA) uptake inhibition
T3 construct: used as crude synaptosomal fraction; from tissue; host or cells: rat striatum, crude synaptosomal fraction
T3 sequence (P23977 whole entry): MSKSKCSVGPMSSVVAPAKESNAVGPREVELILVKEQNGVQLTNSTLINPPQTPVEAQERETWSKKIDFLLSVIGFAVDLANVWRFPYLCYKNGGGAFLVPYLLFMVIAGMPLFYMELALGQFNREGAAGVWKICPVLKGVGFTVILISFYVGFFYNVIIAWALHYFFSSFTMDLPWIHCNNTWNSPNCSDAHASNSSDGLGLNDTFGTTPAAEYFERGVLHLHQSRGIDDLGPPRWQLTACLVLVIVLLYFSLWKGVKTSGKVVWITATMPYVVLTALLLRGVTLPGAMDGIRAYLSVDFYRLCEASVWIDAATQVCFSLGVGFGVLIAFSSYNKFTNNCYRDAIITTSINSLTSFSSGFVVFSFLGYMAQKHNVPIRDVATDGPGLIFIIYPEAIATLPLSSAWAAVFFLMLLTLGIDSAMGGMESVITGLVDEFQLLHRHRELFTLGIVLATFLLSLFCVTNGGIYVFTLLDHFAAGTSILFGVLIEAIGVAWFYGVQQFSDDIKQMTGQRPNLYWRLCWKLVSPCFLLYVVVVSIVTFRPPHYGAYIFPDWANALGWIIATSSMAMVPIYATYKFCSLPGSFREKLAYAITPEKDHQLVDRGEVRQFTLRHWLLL
Procedure: as §1, with “striatum” for “frontal cortex”
as §2, with “μl” for “μL”, “DA” for “5-HT”, “2” for “8”
The uptake value when only solvent was added was set as 100%, the uptake value when unlabeled DA (final concentration 10 μM) was added as 0% (nonspecific uptake value), and the 50% inhibitory concentration was calculated from the concentration of the test compound and its inhibitory activity.

[4] = Metabolic stability test (human liver microsome, hepatic intrinsic clearance); format: in vitro ADME; conditions: human liver microsomes, pH 7.4; human liver microsome 0.2 mg/mL, test compound 0.001 mmol/L, 37° C., 0, 10 and 20 minutes
Procedure: A metabolic reaction was initiated by adding and mixing a test compound solution (final concentration 0.001 mmol/L) and a NADH/NADPH solution (final concentration 1 mmol/L) to a human liver microsome solution (final concentration 100 mmol/L potassium phosphate buffer solution (pH 7.4), 5 mmol/L magnesium chloride, 0.2 mg/ml, human liver microsome). A solution of the internal standard in methanol was prepared and used as a quenching solution.
Specifically, a metabolic reaction was initiated by adding and mixing 2.5 μL of a solution of a test compound in acetonitrile to 222.5 μL of a human liver microsome solution in ice water, followed by preincubation at 37° C. for 1 minute, and then adding 25 μL of a NADH/NADPH solution thereto.
The mixture was centrifuged (6130 g, 4° C., 10 minutes) and the supernatant was used as a sample for LC-MS/MS.
Peak area ratio ([peak area of test compound]/[peak area of internal standard]) was calculated for the test compound and the internal standard.
The residual ratio of the test compound was calculated from ([Ratio of peak areas at each reaction time]/[Ratio of peak areas at 0 minute reaction time]).

SMILES: COc1cc(N2CC3(CCC3)N[C@H]3CCCC[C@@H]32)ccc1OCCO [Example 11]
IC50 [1]: 39.6 nM
IC50 [2]: 91 nM
IC50 [3]: 97.9 nM
microsomal CLint at 0.001 mmol/L [4]: < 50 µL/min/mg

SMILES: CN1[C@H]2CCCC[C@@H]2N(c2ccc(OC(F)(F)CO)cc2)CC1(C)C [Example 37, 2,2-difluoro-2-(4-((4aS,8aS)-3,3,4-trimethyloctahydroquinoxalin-1(2H)-yl)phenoxy)ethan-1-ol]
IC50 [1]: 87.4 nM
IC50 [2]: 34.5 nM
IC50 [3]: 81.9 nM
microsomal CLint at 0.001 mmol/L [4]: < 50 µL/min/mg

SMILES: CC1(C)CN(c2cc(F)c(OCCO)cc2F)[C@H]2CCCC[C@H]2N1 [Example 72]
IC50 [1]: 55.4 nM
IC50 [2]: 7.9 nM
IC50 [3]: 241 nM
microsomal CLint at 0.001 mmol/L [4]: < 50 µL/min/mg

SMILES: CC1(C)CN(c2cc(F)c(OCCO)c(F)c2)[C@@H]2CCCC[C@H]2N1 [Example 35]
IC50 [1]: 71 nM
IC50 [2]: 6.8 nM
IC50 [3]: 59.7 nM
microsomal CLint at 0.001 mmol/L [4]: < 50 µL/min/mg

SMILES: CC1(C)CN(c2ccc(OCCO)cc2Cl)[C@H]2CCCC[C@H]2N1 [Example 64, 2-(3-chloro-4-((4aR,8aS)-3,3-dimethyloctahydroquinoxalin-1(2H)-yl)phenoxy)ethan-1-ol 1/2fumarate]
IC50 [1]: 8.8 nM
IC50 [2]: 5.4 nM
IC50 [3]: 78.9 nM
microsomal CLint at 0.001 mmol/L [4]: < 50 µL/min/mg

SMILES: OCCOc1c(F)cc(N2CC3(CCC3)N[C@H]3CCCC[C@@H]32)cc1Cl [Example 6]
IC50 [1]: 6.1 nM
IC50 [2]: 8.4 nM
IC50 [3]: 5.8 nM
microsomal CLint at 0.001 mmol/L [4]: < 50 µL/min/mg

SMILES: CC1(C)CN(c2ccc(OCCO)c(Cl)c2)[C@@H]2CCCC[C@H]2N1 [Example 28]
IC50 [1]: 55.1 nM
IC50 [2]: 9.7 nM
IC50 [3]: 76.5 nM
microsomal CLint at 0.001 mmol/L [4]: < 50 µL/min/mg

SMILES: CC1(C)CN(c2cc(F)c(OCCO)c(F)c2)[C@H]2CCCC[C@H]2N1 [Example 36]
IC50 [1]: 60.1 nM
IC50 [2]: 5.1 nM
IC50 [3]: 25.6 nM
microsomal CLint at 0.001 mmol/L [4]: < 50 µL/min/mg

SMILES: CC1(C)CN(c2cc(F)c(OCCO)c(F)c2)[C@H]2CCCC[C@@H]2N1 [Example 34, 2-(4-((4aS,8aS)-3,3-dimethyloctahydroquinoxalin-1(2H)-yl)-2,6-difluorophenoxy)ethan-1-ol]
IC50 [1]: 8.9 nM
IC50 [2]: 5.9 nM
IC50 [3]: 73.2 nM
microsomal CLint at 0.001 mmol/L [4]: < 50 µL/min/mg

SMILES: C[C@@H]1CN(c2cc(F)c(OCCO)c(Cl)c2)[C@H]2CCCC[C@@H]2N1 [Example 17, 2-(2-chloro-6-fluoro-4-((3R,4aS,8aS)-3-methyloctahydroquinoxalin-1(2H)-yl)phenoxy)ethan-1-ol 1/2fumarate]
IC50 [1]: 7.3 nM
IC50 [2]: 2.7 nM
IC50 [3]: 7.6 nM
microsomal CLint at 0.001 mmol/L [4]: < 50 µL/min/mg

SMILES: Cc1cc(N2CC3(CCC3)N[C@H]3CCCC[C@@H]32)cc(F)c1OCCO [Example 14]
IC50 [1]: 5.8 nM
IC50 [2]: 8.5 nM
IC50 [3]: 5.5 nM
microsomal CLint at 0.001 mmol/L [4]: < 50 µL/min/mg

Second part, the compound after the results:

IC50 [1]: 18.1 nM
IC50 [2]: 21.3 nM
IC50 [3]: 213 nM
microsomal CLint at 0.001 mmol/L [4]: < 50 µL/min/mg
SMILES: COc1cc(N2CC(C)(C)N[C@H]3CCCC[C@@H]32)ccc1OC(F)(F)CO [Example 26]

IC50 [1]: 42.3 nM
IC50 [2]: 7.1 nM
IC50 [3]: 205 nM
microsomal CLint at 0.001 mmol/L [4]: < 50 µL/min/mg
SMILES: CC1(C)CN(c2cc(F)c(OC(F)(F)CO)cc2F)[C@H]2CCCC[C@@H]2N1 [Example 77]

IC50 [1]: 4.7 nM
IC50 [2]: 4.4 nM
IC50 [3]: 90.9 nM
microsomal CLint at 0.001 mmol/L [4]: < 50 µL/min/mg
SMILES: CC1(C)CN(c2ccc(OC(F)(F)CO)cc2)[C@H]2CCCC[C@@H]2N1 [Example 20, 2-(4-((4aS,8aS)-3,3-dimethyloctahydroquinoxalin-1(2H)-yl)phenoxy)-2,2-difluoroethan-1-ol]

IC50 [1]: 7 nM
IC50 [2]: 1 nM
IC50 [3]: 44.5 nM
microsomal CLint at 0.001 mmol/L [4]: < 50 µL/min/mg
SMILES: Cc1c(OC(F)(F)CO)ccc(N2CC(C)(C)N[C@@H]3CCCC[C@@H]32)c1F [Example 70]

IC50 [1]: 8.7 nM
IC50 [2]: 2.4 nM
IC50 [3]: 68.7 nM
microsomal CLint at 0.001 mmol/L [4]: < 50 µL/min/mg
SMILES: CC1(C)CN(c2ccc(OC(F)(F)CO)c(F)c2F)[C@H]2CCCC[C@H]2N1 [Example 73]

IC50 [1]: 30.3 nM
IC50 [2]: 4.9 nM
IC50 [3]: 88 nM
microsomal CLint at 0.001 mmol/L [4]: 58 µL/min/mg
SMILES: Cc1c(N2CC(C)(C)N[C@@H]3CCCC[C@@H]32)ccc(OC(F)(F)CO)c1F [Example 57]

IC50 [1]: 5.7 nM
IC50 [2]: 3.4 nM
IC50 [3]: 91.4 nM
microsomal CLint at 0.001 mmol/L [4]: < 50 µL/min/mg
SMILES: Cc1c(OC(F)(F)CO)ccc(N2CC(C)(C)N[C@H]3CCCC[C@H]32)c1F [Example 69, 2-(4-((4aS,8aR)-3,3-dimethyloctahydroquinoxalin-1(2H)-yl)-3-fluoro-2-methylphenoxy)-2,2-difluoroethan-1-ol 1/2fumarate]

IC50 [1]: 98.3 nM
IC50 [2]: 8.8 nM
IC50 [3]: 60.5 nM
microsomal CLint at 0.001 mmol/L [4]: < 50 µL/min/mg
SMILES: CC1(C)CN(c2cc(Cl)c(OC(F)(F)CO)cc2F)[C@@H]2CCCC[C@H]2N1 [Example 76]

IC50 [1]: 5.1 nM
IC50 [2]: 3.6 nM
IC50 [3]: 85.1 nM
microsomal CLint at 0.001 mmol/L [4]: 84 µL/min/mg
SMILES: CC1(C)CN(c2ccc(OCCO)c(Br)c2F)[C@H]2CCCC[C@H]2N1 [Example 63]

IC50 [1]: 26.6 nM
IC50 [2]: 5.5 nM
IC50 [3]: 56.4 nM
microsomal CLint at 0.001 mmol/L [4]: < 50 µL/min/mg
SMILES: Cc1cc(N2CC(C)(C)N[C@H]3CCCC[C@@H]32)ccc1OC(F)(F)CO [Example 31]

IC50 [1]: 37.3 nM
IC50 [2]: 5.8 nM
IC50 [3]: 224 nM
microsomal CLint at 0.001 mmol/L [4]: < 50 µL/min/mg
SMILES: Cc1c(OC(F)(F)CO)ccc(N2CC(C)(C)N[C@H]3CCCC[C@@H]32)c1F [Example 79]

IC50 [1]: 9.4 nM
IC50 [2]: 9.7 nM
IC50 [3]: 35.3 nM
microsomal CLint at 0.001 mmol/L [4]: < 50 µL/min/mg
SMILES: CC1(C)CN(c2cc(Cl)c(OC(F)(F)CO)cc2F)[C@H]2CCCC[C@@H]2N1 [Example 75]

IC50 [1]: 57.4 nM
IC50 [2]: 6.6 nM
IC50 [3]: 68.6 nM
microsomal CLint at 0.001 mmol/L [4]: < 50 µL/min/mg
SMILES: Cc1cc(N2CC(C)(C)N[C@@H]3CCCC[C@@H]32)ccc1OC(F)(F)CO [Example 48]

IC50 [1]: 98.3 nM
IC50 [2]: 7.5 nM
IC50 [3]: 60.7 nM
microsomal CLint at 0.001 mmol/L [4]: < 50 µL/min/mg
SMILES: Cc1cc(N2CC(C)(C)N[C@@H]3CCCC[C@H]32)ccc1OC(F)(F)CO [Example 32]
